Data: ChEMBL document CHEMBL5338788, “Discovery of a New-Generation S-Adenosylmethionine-Noncompetitive Covalent Inhibitor Targeting the Lysine Methyltransferase Enhancer of Zeste Homologue 2” (J Med Chem, 2023)
The source made the active and inactive calls. The calls are words filed in the database; no cut-off is given here.

Assays:
[1] = system: KARPAS-422; assay: Antiproliferative activity against human KARPAS-422 cells expressing EZH2 Y641N mutant assessed as inhibition of cell proliferation incubated for 6 days by CCK8 assay; format: functional, cell-based; details: KARPAS-422, 144 h
[2] = target: Histone-lysine N-methyltransferase EZH2 (Homo sapiens, UniProt Q15910, Y641F); assay: Inhibition of N-terminal FLAG-tagged recombinant full-length human EZH2 Y641F mutant in PRC2 complex expressed in baculovirus infected Sf9 cells using H3K27me0 biotin/SAM as substrate preincubated for 10 mins followed by substrate addition measured after 4 hrs by HTRF assay; format: cell-based
[3] = system: Pfeiffer; assay: Antiproliferative activity against human Pfeiffer cells expressing EZH2 […] mutant assessed as inhibition of cell proliferation incubated for 6 days by CCK8 assay; format: functional, cell-based; details: 144 h
[4] = Metabolic stability in human liver microsomes assessed as half life preincubated for 10 mins followed by NADPH addition measured upto 60 mins by LC-MS/MS analysis; format: ADME, Microsome; details: time < 70 min
[5] = system: Pfeiffer; assay: Downregulation of H3K27me3 level in human Pfeiffer cells at 1 uM incubated for 96 hrs followed by compound washout measured after 48 hrs by Western blot analysis; format: functional, cell-based; details: time 144.0 hrs
[6] = Apparent permeability in human Caco-2 cells at 20 uM measured for 35 to 95 mins by LC-MS/MS analysis; format: ADME, cell-based; details: time 35-95 min
[7] = system: DB; assay: Antiproliferative activity against human DB cells expressing wild-type EZH2 assessed as inhibition of cell proliferation incubated for 6 days by CCK8 assay; format: functional, cell-based; details: 144 h
[8] = system: OPM-2; assay: Antiproliferative activity against human OPM-2 cells expressing wild-type EZH2 assessed as inhibition of cell proliferation incubated for 6 days by CCK8 assay; format: functional, cell-based; details: OPM-2, 144 h
[9] = system: SU-DHL-2; assay: Antiproliferative activity against human SUDHL2 cells expressing EZH2 mutant assessed as inhibition of cell proliferation incubated for 6 days by CCK8 assay; format: functional, cell-based; details: SU-DHL-2, 144 h
[10] = system: Pfeiffer; assay: Antiproliferative activity against human Pfeiffer cells expressing EZH2 mutant assessed as inhibition of cell proliferation incubated for 6 days by CCK8 assay; format: functional, cell-based; details: time 6.0 day
[11] = system: RL; assay: Antiproliferative activity against human RL cells expressing EZH2 mutant assessed as inhibition of cell proliferation incubated for 6 days by CCK8 assay; format: functional, cell-based
[12] = system: WSUDLCL2; assay: Antiproliferative activity against human WSUDLCL2 cells expressing wild-type EZH2 assessed as inhibition of cell proliferation incubated for 6 days by CCK8 assay; format: functional, cell-based; details: WSUDLCL2, 144 h
[13] = system: KARPAS-422; assay: Antiproliferative activity against human KARPAS-422 cells expressing EZH2 mutant assessed as inhibition of cell proliferation incubated for 6 days by CCK8 assay; format: functional, cell-based; details: time 6.0 day
[14] = system: U2932; assay: Antiproliferative activity against human U2932 cells expressing wild-type EZH2 assessed as inhibition of cell proliferation incubated for 6 days by CCK8 assay; format: functional, cell-based; details: U2932, 144 h
[15] = Antiproliferative activity against human WILL-1 cells expressing wild-type EZH2 assessed as inhibition of cell proliferation incubated for 6 days by CCK8 assay; format: functional, cell-based; details: WILL-1, 144 h
[16] = system: Karpas-1106P; assay: Antiproliferative activity against human KARPAS-1106P cells expressing wild-type EZH2 assessed as inhibition of cell proliferation incubated for 6 days by CCK8 assay; format: functional, cell-based
[17] = system: HT; assay: Antiproliferative activity against human HT cells expressing wild-type EZH2 assessed as inhibition of cell proliferation incubated for 6 days by CCK8 assay; format: functional, cell-based; details: 144 h
[18] = system: SU-DHL10; assay: Antiproliferative activity against human SU-DHL-10 cells expressing EZH2 mutant assessed as inhibition of cell proliferation incubated for 6 days by CCK8 assay; format: functional, cell-based; details: time 6.0 day

Sequence of Histone-lysine N-methyltransferase EZH2 (Q15910 whole entry Y641F): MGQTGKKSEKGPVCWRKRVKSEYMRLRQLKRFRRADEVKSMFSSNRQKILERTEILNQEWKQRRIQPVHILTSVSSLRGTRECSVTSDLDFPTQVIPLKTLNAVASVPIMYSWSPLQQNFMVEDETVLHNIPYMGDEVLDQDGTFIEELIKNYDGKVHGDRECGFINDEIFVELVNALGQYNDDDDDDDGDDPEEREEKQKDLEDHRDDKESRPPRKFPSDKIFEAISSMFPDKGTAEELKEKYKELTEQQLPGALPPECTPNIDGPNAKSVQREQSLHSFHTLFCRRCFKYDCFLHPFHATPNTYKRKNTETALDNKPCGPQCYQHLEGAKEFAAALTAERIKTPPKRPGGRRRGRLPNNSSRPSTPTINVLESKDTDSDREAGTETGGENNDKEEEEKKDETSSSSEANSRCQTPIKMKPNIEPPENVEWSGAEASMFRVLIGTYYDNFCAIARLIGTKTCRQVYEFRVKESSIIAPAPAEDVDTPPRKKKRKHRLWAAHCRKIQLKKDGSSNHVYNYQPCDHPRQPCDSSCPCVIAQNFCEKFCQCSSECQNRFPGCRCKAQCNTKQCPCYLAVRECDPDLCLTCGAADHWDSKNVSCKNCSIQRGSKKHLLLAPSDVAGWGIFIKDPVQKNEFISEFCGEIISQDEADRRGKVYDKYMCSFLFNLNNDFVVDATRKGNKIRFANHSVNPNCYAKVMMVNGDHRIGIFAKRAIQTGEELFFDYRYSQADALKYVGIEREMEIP

CCC(=O)N(C)c1cc(C(=O)NCc2c(C)cc(C)[nH]c2=O)c(C)c(N(CC)C2CCOCC2)c1
IC50 [1]: > 3000 nM
IC50 [2]: 50 nM
IC50 [3]: 2530 nM

CCN(c1cc(NC(=O)/C=C/CN(C)C)cc(C(=O)NCc2c(C)cc(C)[nH]c2=O)c1C)C1CCOCC1
IC50 [2]: 36 nM

C/C=C/C(=O)Nc1cc(C(=O)NCc2c(C)cc(C)[nH]c2=O)c(C)c(N(CC)C2CCOCC2)c1
IC50 [2]: 21 nM

C=CC(=O)NCc1cc(C(=O)NCc2c(CCC)cc(C)[nH]c2=O)c(C)c(N(CC)C2CCOCC2)c1
IC50 [1]: > 3000 nM
IC50 [2]: 4 nM
IC50 [3]: 1350 nM

C=CC(=O)NCc1cc(C(=O)NCc2c(C)cc(C)[nH]c2=O)c(C)c(N(CC)C2CCOCC2)c1
IC50 [1]: 542 nM
IC50 [2]: 39 nM
IC50 [3]: 194 nM
half-life [4]: 24 min

CC[C@H](C)n1cc(C)c2c(C(=O)NCc3c(C)cc(C)[nH]c3=O)cc(-c3ccc(N4CCNCC4)nc3)cc21
Activity [5]: inactive

C=CC(=O)Nc1cc(C(=O)NCc2c(C)cc(C)[nH]c2=O)c(C)c(N(CC)C2CCOCC2)c1
IC50 [1]: > 3000 nM
Papp at 20 µM [6]: 0.045 ×10⁻⁶ cm/s
IC50 [2]: 10 nM
IC50 [3]: 974 nM
half-life [4]: 9.4 min

CCN(c1cc(-c2ccc(CN3CCOCC3)cc2)cc(C(=O)NCc2c(C)cc(C)[nH]c2=O)c1C)C1CCOCC1 [TAZEMETOSTAT]
IC50 [7]: > 3000 nM
IC50 [1]: 294 nM
Papp at 20 µM [6]: 1.06 ×10⁻⁶ cm/s
IC50 [8]: > 3000 nM
IC50 [9]: > 3000 nM
inhibition [10]: Active
Activity [5]: inactive
inhibition ([11]; time 6.0 day): Active
IC50 [12]: > 3000 nM
inhibition [13]: Active
IC50 [14]: > 3000 nM
IC50 [15]: > 3000 nM
IC50 [3]: 34 nM
inhibition ([16]; time 6.0 day): Active
IC50 [17]: > 3000 nM
half-life [4]: 20.2 min
inhibition [18]: Active

CC#CC(=O)Nc1cc(C(=O)NCc2c(C)cc(C)[nH]c2=O)c(C)c(N(CC)C2CCOCC2)c1
IC50 [2]: 11 nM

CCC(=O)Nc1cc(C(=O)NCc2c(C)cc(C)[nH]c2=O)c(C)c(N(CC)C2CCOCC2)c1
IC50 [1]: > 3000 nM
IC50 [2]: 38 nM
IC50 [3]: 1950 nM

CCC(=O)NCc1cc(C(=O)NCc2c(C)cc(C)[nH]c2=O)c(C)c(N(CC)C2CCOCC2)c1
IC50 [1]: > 3000 nM
IC50 [2]: 137 nM
IC50 [3]: > 3000 nM

CCC(=O)NCc1cc(C(=O)NCc2c(SC)cc(C)[nH]c2=O)c(C)c(N(CC)C2CCOCC2)c1
IC50 [7]: > 3000 nM
IC50 [1]: 708 nM
IC50 [8]: > 3000 nM
IC50 [9]: > 3000 nM
IC50 [2]: 134 nM
inhibition [10]: Active
Activity [5]: inactive
IC50 ([11]; 144 h): > 3000 nM
IC50 [12]: > 3000 nM
inhibition [13]: Active
IC50 [14]: > 3000 nM
IC50 [15]: > 3000 nM
IC50 [3]: 147 nM
IC50 ([16]; 144 h): > 3000 nM
IC50 [17]: > 3000 nM
inhibition [18]: Active

CCN(c1cc(NC(=O)/C=C/CN2CCOCC2)cc(C(=O)NCc2c(C)cc(C)[nH]c2=O)c1C)C1CCOCC1
IC50 [2]: 21 nM

C=CC(=O)NCc1cc(C(=O)NCc2c(OC)cc(C)[nH]c2=O)c(C)c(N(CC)C2CCOCC2)c1
IC50 [1]: 1440 nM
IC50 [2]: 9 nM
IC50 [3]: 314 nM
half-life [4]: 35.3 min

C=C(C)C(=O)Nc1cc(C(=O)NCc2c(C)cc(C)[nH]c2=O)c(C)c(N(CC)C2CCOCC2)c1
IC50 [2]: 38 nM

C=CS(=O)(=O)Nc1cc(C(=O)NCc2c(C)cc(C)[nH]c2=O)c(C)c(N(CC)C2CCOCC2)c1
IC50 [2]: 173 nM

C=CC(=O)N(C)c1cc(C(=O)NCc2c(C)cc(C)[nH]c2=O)c(C)c(N(CC)C2CCOCC2)c1
IC50 [1]: 587 nM
Papp at 20 µM [6]: 0.054 ×10⁻⁶ cm/s
IC50 [2]: 35 nM
IC50 [3]: 195 nM
half-life [4]: 12.7 min
